From US7537906B2, “Apoptosis inducer and method of screening for a substance inhibiting acylated homoserine lactone” (priority 2003, dated 2009)

Tested on: CaCo-2 cells
Assay: Effects of kinase inhibitors on N-(3-oxododecanoyl)-L-homoserine lactone-dependent apoptosis, viability by Trypan blue staining
Assay type: cell-based, human
Conditions: then 30 μM N-(3-oxododecanoyl)-L-homoserine lactone, 12 hours
Protocol: 2×10^5 CaCo-2 cells were inoculated per 3.5 cm dish, cultured for 12 hours in the presence of 10% serum, washed twice with PBS (-), and then synchronously cultured in a serum-free medium for 24 hours. Pretreatment with various inhibitors (50 μM PD98059 and 20 μM SB203580) or DMSO was carried out for 30 minutes. Then 30 μM N-(3-oxododecanoyl)-L-homoserine lactone or DMSO was added, the cells were cultured for 12 hours, and then viability was measured by Trypan blue staining.

SMILES	viability at 20 µM (Homo sapiens, 20 μM pretreatment 30 minutes)	effect of pretreatment on viability (50 μM pretreatment 30 minutes)
C[S+]([O-])c1ccc(-c2nc(-c3ccncc3)c(-c3ccc(F)cc3)[nH]2)cc1 (centres unmarked) [SB203580]	35%	
COc1cccc(-c2cc(=O)c3ccccc3o2)c1N [PD98059]		no effect
